Counter-ions that a name gives are not always drawn.
Key:
Assay type in all cases: biochemical
RET kinase Wild Type = RET kinase Wild Type (Homo sapiens, UniProt P07949); assay: RET Enzyme Assay (HTRF KinEASE-TK), Wild Type
RET kinase V804M = RET kinase V804M (Homo sapiens, UniProt P07949, V804M); assay: RET Enzyme Assay (HTRF KinEASE-TK), V804M
RET kinase M918T = RET kinase M918T (Homo sapiens, UniProt P07949, M918T); assay: RET Enzyme Assay (HTRF KinEASE-TK), M918T
RET kinase G810R = RET kinase G810R (Homo sapiens, UniProt P07949, G810R); assay: RET Enzyme Assay (HTRF KinEASE-TK), G810R
RET kinase G810R, sequence (P07949 29-1114 G810R): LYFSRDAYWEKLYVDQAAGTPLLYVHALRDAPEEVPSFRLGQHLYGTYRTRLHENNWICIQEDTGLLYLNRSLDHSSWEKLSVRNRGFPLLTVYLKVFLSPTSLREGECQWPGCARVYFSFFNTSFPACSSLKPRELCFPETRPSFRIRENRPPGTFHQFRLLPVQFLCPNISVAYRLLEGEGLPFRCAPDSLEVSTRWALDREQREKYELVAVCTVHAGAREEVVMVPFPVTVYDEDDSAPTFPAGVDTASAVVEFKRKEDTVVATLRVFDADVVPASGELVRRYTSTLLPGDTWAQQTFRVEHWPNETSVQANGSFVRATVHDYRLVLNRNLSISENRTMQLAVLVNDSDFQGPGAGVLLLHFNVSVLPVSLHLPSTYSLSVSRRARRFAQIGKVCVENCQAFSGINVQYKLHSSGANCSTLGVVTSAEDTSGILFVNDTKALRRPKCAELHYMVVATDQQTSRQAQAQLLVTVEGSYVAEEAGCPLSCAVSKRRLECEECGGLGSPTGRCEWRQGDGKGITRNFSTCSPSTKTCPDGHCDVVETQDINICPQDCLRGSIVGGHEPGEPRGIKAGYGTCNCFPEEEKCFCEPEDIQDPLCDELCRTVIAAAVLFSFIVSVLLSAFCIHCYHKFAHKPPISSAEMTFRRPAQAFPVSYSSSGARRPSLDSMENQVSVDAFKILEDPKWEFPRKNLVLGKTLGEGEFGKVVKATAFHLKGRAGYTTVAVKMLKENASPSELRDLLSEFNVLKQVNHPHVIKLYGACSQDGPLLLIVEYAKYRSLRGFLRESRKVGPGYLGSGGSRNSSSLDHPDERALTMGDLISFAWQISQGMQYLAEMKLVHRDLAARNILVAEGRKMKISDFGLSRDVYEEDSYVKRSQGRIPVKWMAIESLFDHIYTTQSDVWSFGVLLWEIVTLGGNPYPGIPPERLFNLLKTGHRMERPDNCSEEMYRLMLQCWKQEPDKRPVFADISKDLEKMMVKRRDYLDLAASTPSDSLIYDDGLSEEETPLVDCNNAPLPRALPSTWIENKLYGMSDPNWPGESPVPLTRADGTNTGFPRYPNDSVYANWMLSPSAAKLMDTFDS

RET kinase G810S = RET kinase G810S (Homo sapiens, UniProt P07949, G810S); assay: RET Enzyme Assay (HTRF KinEASE-TK), G810S
RET kinase G810S, sequence (P07949 29-1114 G810S): as the sequence (P07949 29-1114 G810R) above, with R782S counted along it

RET kinase Wild Type, sequence (P07949 29-1114): as the sequence (P07949 29-1114 G810R) above, with R782G counted along it
RET kinase M918T, sequence (P07949 29-1114 M918T): as the sequence (P07949 29-1114 G810R) above, with R782G, M890T counted along it
RET kinase V804M, sequence (P07949 29-1114 V804M): as the sequence (P07949 29-1114 G810R) above, with V776M, R782G counted along it

Structure (SMILES)	IC50 (RET kinase Wild Type)	IC50 (RET kinase V804M)	IC50 (RET kinase M918T)	IC50 (RET kinase G810R)	IC50 (RET kinase G810S)
CC(C)n1nc(-c2noc(C3CC3)c2-c2cnn(C)c2)c2c(N)ncnc21 [Example 3, 3-(5-cyclopropyl-4-(1-methyl-1H-pyrazol-4-yl)isoxazol-3-yl)-1-isopropyl-1H-pyrazolo[3,4-d]pyrimidin-4-amine]	7.1 nM	52.5 nM	12.2 nM	12.5 nM	46.6 nM
CC(C)c1cc(-c2nn(C(C)C)c3ncnc(N)c23)n(C2CCCCO2)n1 (stereo not shown) [Example 20, 1-isopropyl-3-(3-isopropyl-1-(tetrahydro-2H-pyran-2-yl)-1H-pyrazol-5-yl)-1H-pyrazolo[3,4-d]pyrimidin-4-amine]	21.1 nM	–	46.5 nM	70.5 nM	226 nM
CC(C)n1nc(-c2cc(-c3ccccc3)nn2C2CCCCO2)c2c(N)ncnc21 (stereo not shown) [Example 24, 1-isopropyl-3-(3-phenyl-1-(tetrahydro-2H-pyran-2-yl)-1H-pyrazol-5-yl)-1H-pyrazolo[3,4-d]pyrimidin-4-amine]	8.7 nM	–	9.8 nM	55 nM	54.3 nM
CC(C)n1nc(-c2cc(C(F)(F)F)nn2C2CCCCO2)c2c(N)ncnc21 (stereo not shown) [Example 25, 1-isopropyl-3-(1-(tetrahydro-2H-pyran-2-yl)-3-(trifluoromethyl)-1H-pyrazol-5-yl)-1H-pyrazolo[3,4-d]pyrimidin-4-amine]	8.4 nM	–	16.3 nM	48.6 nM	79.8 nM
CC(C)n1nc(-c2cc(C3CC3)nn2C2CCCCC2)c2c(N)ncnc21 [Example 26, 3-(1-cyclohexyl-3-cyclopropyl-1H-pyrazol-5-yl)-1-isopropyl-1H-pyrazolo[3,4-d]pyrimidin-4-amine]	8 nM	–	14.2 nM	31.3 nM	87.4 nM
CC(C)n1nc(C2CC2)cc1-c1nn(C(C)C)c2ncnc(N)c12 [Example 27, 3-(3-cyclopropyl-1-isopropyl-1H-pyrazol-5-yl)-1-isopropyl-1H-pyrazolo[3,4-d]pyrimidin-4-amine]	11.6 nM	–	22.3 nM	42.9 nM	406 nM
Cc1cnn(C2CCCCO2)c1-c1nn(C(C)C)c2ncnc(N)c12 (stereo not shown) [Example 28, 1-isopropyl-3-(4-methyl-1-(tetrahydro-2H-pyran-2-yl)-1H-pyrazol-5-yl)-1H-pyrazolo[3,4-d]pyrimidin-4-amine]	379 nM	276 nM	–	–	–
CC(C)n1nc(-c2cnn(C3CC3)c2)c2c(N)ncnc21 [Example 29, 3-(1-cyclopropyl-1H-pyrazol-4-yl)-1-isopropyl-1H-pyrazolo[3,4-d]pyrimidin-4-amine]	61.7 nM	–	–	–	–
C=Cc1cc(-c2nn(C(C)C)c3ncnc(N)c23)[nH]n1 [Example 30, 1-isopropyl-3-(3-vinyl-1H-pyrazol-5-yl)-1H-pyrazolo[3,4-d]pyrimidin-4-amine hydrochloride]	65.9 nM	–	–	–	–
CC(C)n1nc(-c2cc(C(F)(F)F)[nH]n2)c2c(N)ncnc21 [Example 31, 1-isopropyl-3-(5-(trifluoromethyl)-1H-pyrazol-3-yl)-1H-pyrazolo[3,4-d]pyrimidin-4-amine dihydrochloride]	156 nM	–	–	–	–
CC(=O)n1nc(-c2nn(C(C)C)c3ncnc(N)c23)cc1C [Example 32, 1-(3-(4-amino-1-isopropyl-1H-pyrazolo[3,4-d]pyrimidin-3-yl)-5-methyl-1H-pyrazol-1-yl)ethan-1-one]	44.7 nM	–	–	–	–
CC(C)n1nc(-c2nccn2C)c2c(N)ncnc21 [Example 33, 1-isopropyl-3-(1-methyl-1H-imidazol-2-yl)-1H-pyrazolo[3,4-d]pyrimidin-4-amine]	65.9 nM	–	–	–	–
CC(C)n1nc(-n2cc(C3CC3)cn2)c2c(N)ncnc21 [Example 34, 3-(4-cyclopropyl-1H-pyrazol-1-yl)-1-isopropyl-1H-pyrazolo[3,4-d]pyrimidin-4-amine]	37.3 nM	–	–	–	–
CC(C)n1nc(-c2c[nH]nn2)c2c(N)ncnc21 [Example 35, 1-isopropyl-3-(1H-1,2,3-triazol-4-yl)-1H-pyrazolo[3,4-d]pyrimidin-4-amine]	7.2 nM	–	–	–	–

Source: US11524963B2, “Substituted pyrazolo[3,4-d]pyrimidines as RET kinase inhibitors” (Array Biopharma Inc., priority 2018, dated 2022)
